This passage reports GI50 results from patent US11208405B2, “Pyrrole derivatives as PLK1 inhibitors” (SENTINEL ONCOLOGY LIMITED, priority 2017, dated 2021).

SMILES strings stand for the structures. Structures can show the parent of a compound that is named as a salt.

The experiment relates to HCT116 cells. Kind of experiment: Effects on HCT116 colorectal cancer cell viability (cell titre blue, 72 hours). The experiment is classed as cell-based. To be noted: Homo sapiens, HCT-116, HCT116 cell line. The protocol: Assay to Measure the Effects of Compounds of the Invention on HCT116 Colorectal Cancer Cell Viability
The following protocol was used to measure the effects of compounds of the invention on HCT116 cell viability.
1. HCT116 cells were grown in RPM11640 media supplemented with Glutamax and 10% FBS in a 37° C./5% CO2 incubator.
2. Growing culture of HCT116 cells were trypsinised, counted and diluted to give 10,000 cells/mL in an appropriate volume, allowing at least 6 mL of cells per plate.
3. 200 μL of PBS were added to all the outer wells of a flat-bottomed (8×12) 96-well TC plate. 100 μL of media were added only to wells in column 11 of the plates (these wells provided a blank for the cell titre blue assay). Two compounds were assayed on each plate.
4. 100 ul of 10,000 cells/mL HCT116s were plated in rows B-G of each plate.
5. The cells were incubated (37° C. 5% CO2) for 24 hours before treating with compounds.
6. An 8 mM compound stock in DMSO was prepared for all compounds to be tested. 2.5 μL of the compound stock was added to 1000 μL growth medium in a 96-well deep well block and serial dilutions were prepared across the plate by transferring 500 μL into wells containing 500 μL growth medium+0.25% DMSO to give eight concentrations of compound (this ensured a constant amount of DMSO at all concentrations of compound). When making up growth medium+DMSO, an amount of 5 ml was allowed per compound to be diluted.
7. 3 rows of cells were treated with 100 μL/well from each row on the dilution plate so that each cell plate is treated with a single compound. This gave a final volume in all wells of 200 μL and a titration of compound from a final concentration of 10 uM down to 78 nM.
8. The cells were incubated (37° C. 5% CO2) for 72 hours.
9. 5 ul cell titre blue reagent (Promega) were added to all wells except the edge wells (which contain PBS only) and incubated (37° C. 5% CO2) for 2.5-3 hours.
10. Fluorescence was measured on a suitable plate reader using a 530-570 nm filter set for excitation and a 580-620 nm filter set for fluorescence emission.
11. Data were analysed using an appropriate graphing package (such as GraphPad Prism). Data were expressed as the concentration of compound causing a 50% inhibition of cell viability or GI50.
For the compound `O=C(O)c1ccc(-c2ccc(-c3ccc(Br)cc3)n2-c2ccccc2C(F)(F)F)nc1` [Example 30, 6-[5-(4-bromophenyl)-1-[2-(trifluoromethyl)phenyl]pyrrol-2-yl]pyridine-3-carboxylic acid], the GI50 is 8440 nM.
As to `CN(C)CCNC(=O)c1ccc(-c2ccc(-c3ccc(Br)cc3)n2-c2ccccc2CN(C)C)cc1` [Example 40, hydrochloride], the GI50 was 1030 nM.
The same measure for `O=C(O)c1ccc(-c2ccc(-c3ccc(Br)cc3)n2-c2ccccc2C(F)(F)F)cc1` [Example 27, 4-[5-(4-bromophenyl)-1-[2-(trifluoromethyl)phenyl]pyrrol-2-yl]benzoic acid]: 4740 nM; for `CN(C)CCCNC(=O)c1ccc(-c2ccc(-c3ccccc3)n2-c2cnccc2C(F)(F)F)c(Cl)c1` [Example 68, hydrochloride]: 110 nM.
The compound `CN(C)[C@@H]1CCN(C(=O)c2cccc(-c3ccc(-c4ccc(Br)cc4)n3-c3ccccc3C(F)(F)F)c2)C1` [Example 54, hydrochloride] yielded a GI50 of 1380 nM.
Next, `CN(C)CCNC(=O)c1ccc(Cl)c(-c2ccc(-c3ccc(Br)cc3)n2-c2ccccc2)c1` [Example 19, hydrochloride]: 4210 nM.
Next, `O=C(Cc1ccc(-c2ccc(-c3ccc(Cl)cc3)n2-c2ccccc2C(F)(F)F)cc1)NCCN1CCOCC1` [Example 100, hydrochloride]: 130 nM; `CN(C)CCNC(=O)c1ccc(-c2ccc(-c3ccc(Cl)cc3)n2-c2ccc(Cl)cc2C(F)(F)F)cc1` [Example 98, hydrochloride]: 20 nM; `CN(C)CCNC(=O)c1ccc(-c2ccc(-c3ccc(Cl)cc3)n2-c2cnccc2C(F)(F)F)cc1` [Example 49, hydrochloride]: 50 nM.
The same measure for `CN(C)CCCNC(=O)c1ccc(-c2ccc(-c3ccc(Cl)cc3)n2-c2cnccc2C(F)(F)F)cc1` [Example 51, hydrochloride]: 100 nM.
`CN(C)CCNC(=O)c1cccc(-c2ccc(-c3ccc(F)cc3)n2-c2ccccc2C(F)(F)F)c1` [Example 5, hydrochloride] displayed a GI50 of 560 nM.
`CN1CCN(CCNC(=O)c2ccc(-c3ccc(-c4ccc(Cl)cc4)n3-c3ccccc3C(F)(F)F)cc2)CC1` [Example 88, hydrochloride] displayed a GI50 of 250 nM.
Next, `CN(C)CCCNC(=O)c1ccc(-c2ccc(-c3ccc(Cl)cn3)n2-c2ccccc2C(F)(F)F)cc1` [Example 76, hydrochloride]: 240 nM; `CN(C)CCNC(=O)c1ccc(-c2ccc(-c3ccc(Cl)cc3)n2-c2cnccc2C(F)(F)F)c(F)c1` [Example 89, hydrochloride]: 1360 nM; `CN(C)CCNC(=O)c1ccc(-c2ccc(-c3ccc(C#N)nc3)n2-c2ccccc2C(F)(F)F)cc1` [Example 66, hydrochloride]: 890 nM.
The same measure for `CN(C)CCNC(=O)c1ccc(-c2ccc(-c3ccc(F)cc3F)n2-c2ccccc2C(F)(F)F)cc1` [Example 43]: 200 nM.
Turning to `O=C(O)Cc1ccc(-c2ccc(-c3ccc(Br)cc3)n2-c2ccccc2C(F)(F)F)cc1` [Example 47, 2-[4-[5-(4-Bromophenyl)-1-[2-(trifluoromethyl)phenyl]pyrrol-2-yl]phenyl]acetic Acid], the GI50 was 1380 nM.
`CN(C)CCNC(=O)c1ccc(-c2ccc(-c3ccc(Br)cc3)n2-c2ccccc2C(F)(F)F)nc1` [Example 29, 6-[5-(4-Bromophenyl)-1-[2-(trifluoromethyl)phenyl]pyrrol-2-yl]-N-[2-(dimethylamino)ethyl]pyridine-3-carboxamide Hydrochloride]: halving of growth (GI50) required 60 nM.
`CN(C)CCNC(=O)c1ccc(-c2ccc(-c3ccc(Br)cc3)n2-c2ccccc2C(F)(F)F)cc1Cl` [Example 38] came in with a GI50 of 190 nM.
Next, `COCCNC(=O)c1ccc(-c2ccc(-c3ccc(Cl)cc3)n2-c2ccccc2C(F)(F)F)cc1` [Example 86, 4-[5-(4-chlorophenyl)-1-[2-(trifluoromethyl)phenyl]pyrrol-2-yl]-N-(2-methoxyethyl)benzamide]: 340 nM; `CN(C)CCNC(=O)c1ccc(-c2ccc(-c3cccc(Cl)c3)n2-c2ccccc2C(F)(F)F)cc1` [Example 72, hydrochloride]: 1730 nM.
With `CN(C)CCNC(=O)c1ccc(-c2ccc(-c3ccc(Cl)cc3)n2-c2ncccc2C(F)(F)F)cc1` [Example 79, hydrochloride], the GI50 was found to be 3830 nM.
The same measure for `CN(C)CCNC(=O)Nc1ccc(-c2ccc(-c3ccc(Cl)cc3)n2-c2ccccc2C(F)(F)F)cc1` [Example 90, 1-[4-[5-(4-Chlorophenyl)-1-[2-(trifluoromethyl)phenyl]pyrrol-2-yl]phenyl]-3-[2-(dimethylamino)-ethyl]urea Hydrochloride]: 500 nM; for `COc1cc(C(=O)NCCN(C)C)ccc1-c1ccc(-c2ccc(Br)cc2)n1-c1ccccc1C(F)(F)F` [Example 32, hydrochloride]: 60 nM; for `NCCNC(=O)c1ccc(-c2ccc(-c3ccc(Cl)cc3)n2-c2ccccc2C(F)(F)F)cc1` [Example 94, hydrochloride]: 50 nM.
The compound `COCc1ccccc1-n1c(-c2ccc(Br)cc2)ccc1-c1ccc(C(=O)NCCN(C)C)cc1` [Example 50] showed a GI50 of 2180 nM.
`CN(C)CCNC(=O)c1ccc(-n2ncc(-c3ccc(F)cc3)c2-c2ccccc2C(F)(F)F)cc1` [Example 106, hydrochloride] showed a GI50 of 80 nM.
`CN1CCN(C(=O)c2ccc(-c3ccc(-c4ccc(Cl)cc4)n3-c3ccccc3C(F)(F)F)cc2)CC1` [Example 85, hydrochloride] gave a concentration for 50% growth inhibition (GI50) of 490 nM.
The same measure for `COc1ccc(C(=O)NCCN(C)C)cc1-c1ccc(-c2ccc(Br)cc2)n1-c1ccccc1C(F)(F)F` [Example 52, hydrochloride]: 350 nM; for `CN(C)[C@H]1CCN(C(=O)c2cccc(-c3ccc(-c4ccc(Br)cc4)n3-c3ccccc3C(F)(F)F)c2)C1` [Example 55, hydrochloride]: 2250 nM; for `COc1cc(C(=O)NCCN(C)C)ccc1-c1ccc(-c2ccc(Cl)cc2)n1-c1cnccc1C(F)(F)F` [Example 73, hydrochloride]: 90 nM.
Take `O=C(NCCN1CCOCC1)c1ccc(-c2ccc(-c3ccc(Cl)cc3)n2-c2cnccc2C(F)(F)F)cc1` [Example 81, hydrochloride]: the GI50 was found to be 80 nM.
Next, `CN(C)CCN(C)C(=O)c1ccc(-c2ccc(-c3ccc(Cl)cc3)n2-c2ccccc2C(F)(F)F)cc1` [Example 83, hydrochloride]: 60 nM; `CN(C)CCC(=O)Nc1ccc(-c2ccc(-c3ccc(Br)cc3)n2-c2ccccc2C(F)(F)F)cc1` [Example 46, N-[4-[5-(4-Bromophenyl)-1-[2-(trifluoromethyl)phenyl]pyrrol-2-yl]phenyl]-3-(dimethylamino) propanamide Hydrochloride]: 160 nM; `O=C(c1cccc(-c2ccc(-c3ccc(Br)cc3)n2-c2ccccc2C(F)(F)F)c1)N1CCC(Cc2cccnc2)CC1` [Example 102, hydrochloride]: 380 nM.
The same measure for `CN(C)CCNC(=O)C(C)(C)c1ccc(-c2ccc(-c3ccc(Cl)cc3)n2-c2ccccc2C(F)(F)F)cc1` [Example 107, hydrochloride]: 160 nM; for `CN1CCN(Cc2ccc(-c3ccc(-c4ccc(Br)cc4)n3-c3ccccc3C(F)(F)F)cc2)CC1` [Example 48, hydrochloride]: 410 nM.
The same measure for `NS(=O)(=O)c1ccc(-c2ccc(-c3ccc(Br)cc3)n2-c2ccccc2C(F)(F)F)cc1` [Example 65, 4-[5-(4-bromophenyl)-1-[2-(trifluoromethyl)phenyl]pyrrol-2-yl]benzenesulfonamide]: 1960 nM; for `CN(C)CCNC(=O)c1ccc(-c2ccc(-c3ccc(Cl)cc3)n2-c2ccc(F)cc2C(F)(F)F)cc1` [Example 97, hydrochloride]: 20 nM; for `COc1cc(-c2ccc(-c3ccc(Br)cc3)n2-c2ccccc2C(F)(F)F)ccc1C(=O)NCCCN(C)C` [Example 31, hydrochloride]: 1450 nM.
`O=C(NCCN1CCOCC1)c1ccc(-n2ncc(-c3ccc(Cl)cc3)c2-c2ccccc2C(F)(F)F)cc1` [Example 104, hydrochloride] came in with a GI50 of 150 nM.
Next, `CN(C)CCNS(=O)(=O)c1ccc(-c2ccc(-c3ccc(Br)cc3)n2-c2ccccc2C(F)(F)F)cc1` [Example 44, 4-[5-(4-Bromophenyl)-1-[2-(trifluoromethyl)phenyl]pyrrol-2-yl]-N-[2-(dimethylamino)ethyl]benzenesulfonamide Hydrochloride]: 510 nM; `CN(C)CCNC(=O)c1ccc(-c2ccc(-c3ccc(Cl)cc3)n2-c2cccc(C(F)(F)F)c2)cc1` [Example 77, hydrochloride]: 3630 nM.

By GI50 is commonly meant the concentration that inhibits growth by half.
